In patent publication US20250325677A1, “STAT6 DEGRADERS” (Gilead Sciences, Inc., priority 2024, published 2025) one finds EC50 and DC50 data, which are given here for 16 compounds.

The structures appear in SMILES notation.

By EC50 is commonly meant the concentration that produces a half-maximal response. As a reminder, the DC50 is the concentration giving 50% degradation.

For one test, the system named is eotaxin-3 release. Nature of the test: Human whole blood eotaxin-3 assay (IL-4 stimulated). It is filed as cell-based. The conditions noted are these: human whole blood, IL-4 0.4 nM, 48 hours; geometric mean; given for compounds with >80% Emax; read-out: Eotaxin-3 EC50. The method, boiled down: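 Human whole blood was preincubated with compound for 120 min at 37 °C, then stimulated with recombinant human IL-4 (E. coli) at 0.4 nM final for 48 h. Inhibition of eotaxin-3 release gave EC50 values.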

In the next test the target is STAT6 (Homo sapiens (Human), UniProt P42226). Nature of the test: STAT6 degrader assay (HiBiT, HeLa LgBiT clone 4.14). The format is cell-based. The conditions noted are these: HeLa LgBiT clone 4.14, 4-24 h; geometric mean; given for compounds with >80% Emax; read-out: STAT6 degradation DC50. The method, boiled down: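 HeLa LgBiT clone 4.14 cells with HiBiT knocked into endogenous STAT6 were treated with compound for 4-24 h at 37° C. Luminescence after Nano-GLO substrate (0.5 h) measured remaining STAT6; 50 μM terfenadine wells defined 100% degradation, and DC50 (nM) was derived.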
Sequence of STAT6 (P42226 whole entry): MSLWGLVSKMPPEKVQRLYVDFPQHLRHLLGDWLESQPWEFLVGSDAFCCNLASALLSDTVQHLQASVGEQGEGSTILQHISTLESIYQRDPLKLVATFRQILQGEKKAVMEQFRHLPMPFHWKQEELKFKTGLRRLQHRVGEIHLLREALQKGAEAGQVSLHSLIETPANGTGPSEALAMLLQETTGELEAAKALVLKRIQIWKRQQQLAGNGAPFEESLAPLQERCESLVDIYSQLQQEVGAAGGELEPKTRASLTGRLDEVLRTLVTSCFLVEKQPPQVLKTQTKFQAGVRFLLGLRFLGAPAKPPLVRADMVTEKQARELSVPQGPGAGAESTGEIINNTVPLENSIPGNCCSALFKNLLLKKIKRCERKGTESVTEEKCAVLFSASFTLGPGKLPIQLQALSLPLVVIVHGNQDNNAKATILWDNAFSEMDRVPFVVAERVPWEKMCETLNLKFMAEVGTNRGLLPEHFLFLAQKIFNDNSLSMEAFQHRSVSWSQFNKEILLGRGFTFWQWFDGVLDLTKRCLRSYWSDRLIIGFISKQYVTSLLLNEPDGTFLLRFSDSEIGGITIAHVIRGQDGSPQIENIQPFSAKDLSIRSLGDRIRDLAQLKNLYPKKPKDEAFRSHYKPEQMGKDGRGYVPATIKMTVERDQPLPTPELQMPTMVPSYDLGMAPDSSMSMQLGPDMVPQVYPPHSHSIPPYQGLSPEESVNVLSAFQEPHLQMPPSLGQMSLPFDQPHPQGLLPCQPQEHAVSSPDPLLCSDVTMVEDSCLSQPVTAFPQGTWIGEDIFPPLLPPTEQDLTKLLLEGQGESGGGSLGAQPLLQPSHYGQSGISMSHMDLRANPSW
(In general: With HiBiT, luminescence reflects the tagged protein that the partner subunit can reach.)

For `COc1nc(N)ccc1-c1ccnc2c1cc([C@H](C)N1CCC(c3ccc(C(=O)N4CCC(CN5CCN(Cc6ccc7c(c6)n(C)c(=O)n7C6CCC(=O)NC6=O)C[C@@H]5C)CC4)cc3)CC1)n2C` (stereo partly drawn) [Example 3e41, 3-(5-(((S)-4-((1-(4-(1-((S)-1-(4-(6-amino-2-methoxypyridin-3-yl)-1-methyl-1H-pyrrolo[2,3-b]pyridin-2-yl)ethyl)piperidin-4-yl)benzoyl)piperidin-4-yl)methyl)-3-methylpiperazin-1-yl)methyl)-3-methyl-2-oxo-2,3-dihydro-1H-benzo[d]imidazol-1-yl)piperidine-2,6-dione], in the test on eotaxin-3 release, the EC50 stood at 0.8 nM. Besides, the 50% degradation concentration (DC50) on STAT6 was 0.2 nM.

`CNc1ccc(-c2ccnc3c2cc(CN2CCC(c4c(F)cc(C(=O)N5CCC(CN6CCN(Cc7ccc8c(c7)C7(CC7)C(=O)N8C7CCC(=O)NC7=O)C[C@@H]6C)CC5)cc4F)CC2)n3C)cn1` (stereo partly drawn) [Example 3h38, 3-(5′-(((S)-4-((1-(3,5-difluoro-4-(1-((1-methyl-4-(6-(methylamino)pyridin-3-yl)-1H-pyrrolo [2,3-b]pyridin-2-yl)methyl)piperidin-4-yl)benzoyl)piperidin-4-yl)methyl)-3-methylpiperazin-1-yl)methyl)-2′-oxospiro[cyclopropane-1,3′-indolin]-1′-yl)piperidine-2,6-dione]: the EC50 in the test with eotaxin-3 release came out at 7.1 nM. Also, on STAT6, the DC50 came out at 1.7 nM.

For the compound `C[C@H]1CN(Cc2cc3c(cc2F)n([C@H]2CCC(=O)NC2=O)c(=O)n3C2CC2)CCN1CC1CCN(C(=O)c2ccc(C3CCN([C@@H](C)c4cc5c(-c6ccc(N)nc6)ccnc5n4C)CC3)cc2)CC1` (single isomer, unassigned) [Example 3e62], in the test on eotaxin-3 release, the EC50 was 4.9 nM. The DC50 at STAT6 was 0.8 nM.

Take `CNc1ccc(-c2ccnc3c2cc([C@H](C)N2CCC(c4ccc(C(=O)N5CCC(CN6CCN(Cc7ccc8c(c7)n(C7CC7)c(=O)n8C7CCC(=O)NC7=O)C[C@@H]6C)CC5)cc4)CC2)n3C)cn1` (stereo partly drawn) [Example 3h25, 3-(3-cyclopropyl-5-(((S)-3-methyl-4-((1-(4-(1-((S)-1-(1-methyl-4-(6-(methylamino)pyridin-3-yl)-1H-pyrrolo[2,3-b]pyridin-2-yl)ethyl)piperidin-4-yl)benzoyl)piperidin-4-yl)methyl)piperazin-1-yl)methyl)-2-oxo-2,3-dihydro-1H-benzo[d]imidazol-1-yl)piperidine-2,6-dione]: the EC50 with eotaxin-3 release is 3.4 nM. For the same compound, on STAT6, the half-maximal degradation concentration (DC50) worked out at 1.9 nM.

On to `CC[C@H]1CN(Cc2ccc3c(c2)n(C2CC2)c(=O)n3[C@H]2CCC(=O)NC2=O)CCN1CC1CCN(C(=O)c2ccc(C3CCN([C@@H](C)c4cc5c(-c6ccc(N)nc6)ccnc5n4C)CC3)cc2)CC1` (single isomer, unassigned) [Example 3e65], for which the EC50 with eotaxin-3 release is 5.4 nM. At STAT6, the DC50 was 2.6 nM.

Turning to `C[C@@H](c1cc2c(-c3ccc(N)nc3)ccnc2n1C)N1CCC(c2ccc(C(=O)N3CCC(CN4CCN(Cc5ccc6c(c5)n(C)c(=O)n6C5CCC(=O)NC5=O)C[C@H]4C(F)(F)F)CC3)cc2)CC1` (stereo partly drawn) [Example 3e43, 3-(5-(((S)-4-((1-(4-(1-((S)-1-(4-(6-aminopyridin-3-yl)-1-methyl-1H-pyrrolo[2,3-b]pyridin-2-yl)ethyl)piperidin-4-yl)benzoyl)piperidin-4-yl)methyl)-3-(trifluoro-methyl)piperazin-1-yl)methyl)-3-methyl-2-oxo-2,3-dihydro-1H-benzo[d]imidazol-1-yl)piperidine-2,6-dione], in the test with eotaxin-3 release, the EC50 worked out at 4.6 nM. In addition, the 50% degradation concentration (DC50) on STAT6 was determined as 2.8 nM.

In the case of `C[C@@H](c1cc2c(-c3ccc(N)nc3)ccnc2n1C)N1CCC(c2ccc(C(=O)N3CCC(CN4[C@@H](C)CN(Cc5ccc6c(c5)n(C)c(=O)n6C5CCC(=O)NC5=O)C[C@@H]4C)CC3)cc2)CC1` (stereo partly drawn) [Example 3e29, 3-(5-(((3S,5S)-4-((1-(4-(1-((S)-1-(4-(6-aminopyridin-3-yl)-1-methyl-1H-pyrrolo [2,3-b]pyridin-2-yl)ethyl)piperidin-4-yl)benzoyl)piperidin-4-yl)methyl)-3,5-dimethylpiperazin-1l-yl)methyl)-3-methyl-2-oxo-2,3-dihydro-1H-benzo[d]imidazol-1-yl)piperidine-2,6-dione], in the test on eotaxin-3 release, the EC50 was found to be 2.3 nM. The DC50 on STAT6 was found to be 0.4 nM.

Take `C[C@@H](c1cc2c(-c3ccc(N)nc3)ccnc2n1C)N1CCC(c2ccc(C(=O)N3CCC(CN4CCN(Cc5cc6c(cc5F)N(C5CCC(=O)NC5=O)C(=O)C65CC5)CC4)CC3)cc2)CC1` (stereo partly drawn) [Example 3h9, 3-(5′-((4-((1-(4-(1-((S)-1-(4-(6-aminopyridin-3-yl)-1-methyl-1H-pyrrolo[2,3-b]pyridin-2-yl)ethyl)piperidin-4-yl)benzoyl)piperidin-4-yl)methyl)piperazin-1-yl)methyl)-6′-fluoro-2′-oxospiro[cyclopropane-1,3′-indolin]-1′-yl)piperidine-2,6-dione]: the EC50 in the test on eotaxin-3 release was found to be 43.7 nM. The half-maximal degradation concentration (DC50) on STAT6 stood at 12.7 nM.

Turning to `C[C@H]1CN(Cc2ccc3c(c2)C2(CC2)C(=O)N3C2CCC(=O)NC2=O)CCN1CC1CCN(C(=O)c2cc(F)c(C3CCN(Cc4cc5c(-c6ccc(N)nc6)ccnc5n4C)CC3)c(F)c2)CC1` (stereo partly drawn) [Example 3h24, 3-(5′-(((S)-4-((1-(4-(1-((4-(6-aminopyridin-3-yl)-1-methyl-1H-pyrrolo[2,3-b]pyridin-2-yl)methyl)piperidin-4-yl)-3,5-difluorobenzoyl)piperidin-4-yl)methyl)-3-methylpiperazin-1-yl)methyl)-2′-oxospiro[cyclopropane-1,3′-indolin]-1′-yl)piperidine-2,6-dione], the EC50 in the test on eotaxin-3 release stood at 3.9 nM. For the same compound, the DC50 at STAT6 stood at 1.4 nM.

Turning to `C[C@H]1CN(Cc2cc3c(cc2F)n([C@H]2CCC(=O)NC2=O)c(=O)n3C)CCN1CC1CCN(C(=O)c2ccc(C3CCN([C@@H](C)c4cc5c(-c6ccc(N)nc6)ccnc5n4C)CC3)cc2)CC1` (single isomer, unassigned) [Example 3e63], the EC50 in the test on eotaxin-3 release amounted to 1.2 nM. Moreover, the DC50 at STAT6 was 0.2 nM.

Turning to `C[C@H]1CN(Cc2cc3c(cc2F)n(C2CCC(=O)NC2=O)c(=O)n3C)CCN1CC1CCN(C(=O)c2ccc(C3CCN([C@@H](C)c4cc5c(-c6ccc(N)nc6)ccnc5n4C)CC3)cc2)CC1` (mixture of isomers) [Example 3e34, 3-(5-(((S)-4-((1-(4-(1-((S)-1-(4-(6-aminopyridin-3-yl)-1-methyl-1H-pyrrolo[2,3-b]pyridin-2-yl)ethyl)piperidin-4-yl)benzoyl)piperidin-4-yl)methyl)-3-methylpiperazin-1-yl)methyl)-6-fluoro-3-methyl-2-oxo-2,3-dihydro-1H-benzo[d]imidazol-1-yl)piperidine-2,6-dione], in the test with eotaxin-3 release, the EC50 worked out at 1.8 nM. Moreover, the DC50 on STAT6 stood at 0.4 nM.

As to `C[C@H]1CN(Cc2ccc3c(c2)C(C)(C)C(=O)N3C2CCC(=O)NC2=O)CCN1CC1CCN(C(=O)c2ccc(C3CCN([C@@H](C)c4cc5c(-c6ccc(N)nc6)ccnc5n4C)CC3)cc2)CC1` (stereo partly drawn) [Example 3r2, 3-(5-(((S)-4-((1-(4-(1-((S)-1-(4-(6-aminopyridin-3-yl)-1-methyl-1H-pyrrolo[2,3-b]pyridin-2-yl)ethyl)piperidin-4-yl)benzoyl)piperidin-4-yl)methyl)-3-methylpiperazin-1-yl)methyl)-3,3-dimethyl-2-oxoindolin-1-yl)piperidine-2,6-dione], the 50% effective concentration (EC50) with eotaxin-3 release worked out at 14.7 nM. Further, at STAT6, the DC50 is 4.1 nM.

Take `C[C@H]1CN(Cc2ccc3c(c2)oc(=O)n3C2CCC(=O)NC2=O)CCN1CC1CCN(C(=O)c2ccc(C3CCN([C@@H](C)c4cc5c(-c6ccc(N)nc6)ccnc5n4C)CC3)cc2)CC1` (stereo partly drawn) [Example 3n6, 3-(6-(((S)-4-((1-(4-(1-((S)-1-(4-(6-aminopyridin-3-yl)-1-methyl-1H-pyrrolo[2,3-b]pyridin-2-yl)ethyl)piperidin-4-yl)benzoyl)piperidin-4-yl)methyl)-3-methylpiperazin-1-yl)methyl)-2-oxobenzo[d]oxazol-3 (2H)-yl)piperidine-2,6-dione]: the EC50 in the test on eotaxin-3 release stood at 4 nM. Moreover, on STAT6, the DC50 worked out at 0.7 nM.

Take `C[C@H]1CN(Cc2cc3c(cc2F)n([C@@H]2CCC(=O)NC2=O)c(=O)n3C)CCN1CC1CCN(C(=O)c2ccc(C3CCN([C@@H](C)c4cc5c(-c6ccc(N)nc6)ccnc5n4C)CC3)cc2)CC1` (single isomer, unassigned) [Example 3e60]: the concentration for a half-maximal effect (EC50) with eotaxin-3 release is 1.2 nM. Further, the DC50 at STAT6 was 0.3 nM.

`COC[C@H]1CN(Cc2ccc3c(c2)n(C)c(=O)n3C2CCC(=O)NC2=O)CCN1CC1CCN(C(=O)c2ccc(C3CCN([C@@H](C)c4cc5c(-c6ccc(N)nc6)ccnc5n4C)CC3)cc2)CC1` (stereo partly drawn) [Example 3e28, 3-(5-(((R)-4-((1-(4-(1-((S)-1-(4-(6-aminopyridin-3-yl)-1-methyl-1H-pyrrolo[2,3-b]pyridin-2-yl)ethyl)piperidin-4-yl)benzoyl)piperidin-4-yl)methyl)-3-(methoxymethyl)piperazin-1-yl)methyl)-3-methyl-2-oxo-2,3-dihydro-1H-benzo[d]imidazol-1-yl)piperidine-2,6-dione]: in the test on eotaxin-3 release, the EC50 turned out to be 1.1 nM. Moreover, the DC50 on STAT6 was determined as 0.2 nM.

On to `CNc1ccc(-c2ccnc3c2cc([C@H](C)N2CC=C(c4c(C)cc(C(=O)N5CCC(CN6CCN(Cc7cc8c(cc7F)N(C7CCC(=O)NC7=O)C(=O)C8(C)C)C[C@@H]6C)CC5)cc4F)CC2)n3C)cn1` (stereo partly drawn) [Example 3h33, 3-(6-fluoro-5-(((S)-4-((1-(3-fluoro-5-methyl-4-(1-((S)-1-(1-methyl-4-(6-(methylamino)pyridin-3-yl)-1H-pyrrolo[2,3-b]pyridin-2-yl)ethyl)-1,2,3,6-tetrahydropyridin-4-yl)benzoyl)piperidin-4-yl)methyl)-3-methylpiperazin-1-yl)methyl)-3,3-dimethyl-2-oxoindolin-1-yl)piperidine-2,6-dione], for which, in the test with eotaxin-3 release, the EC50 stood at 40.4 nM. Moreover, the DC50 on STAT6 turned out to be 36.7 nM.
